Assay [1] concerns Kallikrein. Put plainly: Anti-kallikrein activity (hydrolysis of TAME). Particulars: molar concentration inhibiting 50% of TAME hydrolysis; read-out: Kallikrein ID50. In kind it is biochemical. How it is done:
(§1) The anti-trypsin, anti-plasmin, anti-kallikrein and anti-thrombin activities were determined according to the method of Muramatsu et al. [M. Muramatsu, T. Onishi, S. Makino, Y. Hayashi and S. Fujii, J. of Biochem., 58, 214 (1965)]. The data summarized in Table 1 are expressed in terms of molar concentration (ID50) of the test compound which inhibits 50% of the activity of each enzyme to hydrolyze TAME (tosylalginine methyl ester). The compound No. corresponds to the compound number shown in Examples.

Assay [2] deals with T1, Trypsin (Bos taurus, UniProt P00760).
T1 sequence (P00760 24-246): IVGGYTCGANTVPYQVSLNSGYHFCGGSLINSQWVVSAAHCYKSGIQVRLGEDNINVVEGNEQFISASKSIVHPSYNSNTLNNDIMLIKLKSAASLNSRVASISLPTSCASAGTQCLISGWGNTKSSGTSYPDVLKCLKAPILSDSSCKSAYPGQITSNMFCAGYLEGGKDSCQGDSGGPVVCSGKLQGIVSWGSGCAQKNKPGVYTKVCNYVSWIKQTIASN
Put plainly: Anti-trypsin activity (hydrolysis of TAME). The assay is classed as biochemical. Particulars: for pIC50: molar concentration inhibiting 50% of TAME hydrolysis, read-out: Trypsin ID50; for inhibition at 10 µM: at 1×10^-5 M, read-out: Trypsin percentage inhibition. The protocol:
(§2) The anti-trypsin, anti-plasmin, anti-kallikrein and anti-thrombin activities were determined according to the method of Muramatsu et al. [M. Muramatsu, T. Onishi, S. Makino, Y. Hayashi and S. Fujii, J. of Biochem., 58, 214 (1965)]. […] The compound No. corresponds to the compound number shown in Examples.

Assay [3] has as its target T2, C1s (Homo sapiens, UniProt P09871).
T2 sequence (P09871 438-688 limits assumed): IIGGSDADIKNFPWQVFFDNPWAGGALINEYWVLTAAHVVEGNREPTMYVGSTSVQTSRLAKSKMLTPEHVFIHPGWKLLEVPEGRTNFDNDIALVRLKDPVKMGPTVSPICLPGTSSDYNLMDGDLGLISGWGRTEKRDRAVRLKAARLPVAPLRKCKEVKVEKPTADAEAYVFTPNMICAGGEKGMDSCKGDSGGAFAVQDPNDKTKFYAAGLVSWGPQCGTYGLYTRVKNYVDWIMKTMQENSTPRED
T2 sequence (P09871 16-437 partner limits assumed): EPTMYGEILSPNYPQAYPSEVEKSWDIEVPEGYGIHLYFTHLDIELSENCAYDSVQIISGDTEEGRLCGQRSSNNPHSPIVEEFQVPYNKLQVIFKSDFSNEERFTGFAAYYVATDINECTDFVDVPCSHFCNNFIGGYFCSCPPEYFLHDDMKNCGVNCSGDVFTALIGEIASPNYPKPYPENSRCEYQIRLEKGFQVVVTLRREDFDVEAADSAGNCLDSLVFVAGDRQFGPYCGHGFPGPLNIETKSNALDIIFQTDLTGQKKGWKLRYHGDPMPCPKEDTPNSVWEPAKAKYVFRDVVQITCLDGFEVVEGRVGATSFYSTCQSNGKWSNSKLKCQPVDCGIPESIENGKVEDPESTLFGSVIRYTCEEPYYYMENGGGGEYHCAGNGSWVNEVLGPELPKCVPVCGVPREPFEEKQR
Put plainly: biochemical. Particulars: ATEE hydrolysis; read-out: Anti-C1 activity, C1s ID50. How it is done: The anti-Cl esterase (Clr, Cls) activity was determined according to the method of Okamura et al. [K. Okamura, M. Muramatsu and S. Fujii, Biochem. Biophys. […] The figures in Table 2 have the following meanings:
Cls: Molar concentration of the test compound which inhibits 50% of the ability of Cls to hydrolyse ATEE (acetyltyrosin ethyl ester).

Assay [4] addresses Thrombin (Homo sapiens, UniProt P00734). As to the kind of experiment: biochemical. As to conditions: for pIC50: molar concentration inhibiting 50% of TAME hydrolysis, read-out: Thrombin ID50; for inhibition at 10 µM: at 1×10^-5 M, read-out: Thrombin percentage inhibition. The protocol:
as §1

The target of assay [5] is T3, C1r (Homo sapiens, UniProt P00736).
T3 sequence (P00736 464-705 limits assumed): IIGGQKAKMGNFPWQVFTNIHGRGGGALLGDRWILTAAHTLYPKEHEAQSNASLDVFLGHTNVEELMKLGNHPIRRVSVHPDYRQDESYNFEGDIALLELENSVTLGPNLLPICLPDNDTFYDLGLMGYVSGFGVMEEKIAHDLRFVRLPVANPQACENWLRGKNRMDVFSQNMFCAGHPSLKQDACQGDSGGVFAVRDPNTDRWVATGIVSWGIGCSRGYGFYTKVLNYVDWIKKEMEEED
T3 sequence (P00736 18-463 partner limits assumed): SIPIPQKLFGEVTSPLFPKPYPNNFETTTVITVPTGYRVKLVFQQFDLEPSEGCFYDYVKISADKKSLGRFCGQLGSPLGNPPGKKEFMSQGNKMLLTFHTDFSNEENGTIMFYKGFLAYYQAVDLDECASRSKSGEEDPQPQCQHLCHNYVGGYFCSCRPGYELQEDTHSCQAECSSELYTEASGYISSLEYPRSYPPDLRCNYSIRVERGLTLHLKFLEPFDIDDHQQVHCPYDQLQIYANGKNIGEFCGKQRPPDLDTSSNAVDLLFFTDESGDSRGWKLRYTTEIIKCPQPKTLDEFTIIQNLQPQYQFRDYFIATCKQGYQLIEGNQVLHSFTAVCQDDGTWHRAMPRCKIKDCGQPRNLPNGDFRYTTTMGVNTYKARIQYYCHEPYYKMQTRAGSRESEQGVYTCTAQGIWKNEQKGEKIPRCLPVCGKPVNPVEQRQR
Put plainly: Anti-C1 esterase (C1r) activity (hydrolysis of AAME). The assay is classed as biochemical. Particulars: for pIC50: AAME hydrolysis, read-out: Anti-C1 activity, C1r ID50; for inhibition at 10 µM: at 1×10^-5 M, read-out: Anti-C1 activity, C1r percent inhibition. The protocol:
The anti-Cl esterase ([…]) activity was determined according to the method of Okamura et al. [K. Okamura, M. Muramatsu and S. Fujii, Biochem. Biophys.

Assay [6] concerns complement mediated hemolysis. Put plainly: Inhibition of complement mediated hemolysis. In kind it is cell-based.
Method: The principle of this method is based on the fact that hemolysis is caused by the activation of complement, when the latter is added to a complex (immune complex) of erythrocytes and the antibody thereof. The degree of hemolysis varies in proportion to the amount of complement added. Therefore, when a known amount of complement admixed with a C1 esterase inhibitor is used, the hemolysis must be suppressed in proportion to the inhibitory activity.
For assay [7], the target named is Plasmin (Homo sapiens, UniProt P00747). Put plainly: Anti-plasmin activity (hydrolysis of TAME). The assay is classed as biochemical. Particulars: for pIC50: molar concentration inhibiting 50% of TAME hydrolysis, read-out: Plasmin ID50; for inhibition at 10 µM: at 1×10^-5 M, read-out: Plasmin percentage inhibition. The protocol: as §2
Sequence of Plasmin (P00747 581-810 limits assumed, species assumed): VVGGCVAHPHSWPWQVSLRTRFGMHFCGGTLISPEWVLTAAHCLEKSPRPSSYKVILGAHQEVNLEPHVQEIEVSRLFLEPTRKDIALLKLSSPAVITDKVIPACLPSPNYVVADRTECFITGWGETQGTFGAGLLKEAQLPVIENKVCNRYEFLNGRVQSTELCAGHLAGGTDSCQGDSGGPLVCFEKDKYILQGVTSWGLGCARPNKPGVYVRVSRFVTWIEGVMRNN
Sequence of Plasmin (P00747 97-580 partner limits assumed, species assumed): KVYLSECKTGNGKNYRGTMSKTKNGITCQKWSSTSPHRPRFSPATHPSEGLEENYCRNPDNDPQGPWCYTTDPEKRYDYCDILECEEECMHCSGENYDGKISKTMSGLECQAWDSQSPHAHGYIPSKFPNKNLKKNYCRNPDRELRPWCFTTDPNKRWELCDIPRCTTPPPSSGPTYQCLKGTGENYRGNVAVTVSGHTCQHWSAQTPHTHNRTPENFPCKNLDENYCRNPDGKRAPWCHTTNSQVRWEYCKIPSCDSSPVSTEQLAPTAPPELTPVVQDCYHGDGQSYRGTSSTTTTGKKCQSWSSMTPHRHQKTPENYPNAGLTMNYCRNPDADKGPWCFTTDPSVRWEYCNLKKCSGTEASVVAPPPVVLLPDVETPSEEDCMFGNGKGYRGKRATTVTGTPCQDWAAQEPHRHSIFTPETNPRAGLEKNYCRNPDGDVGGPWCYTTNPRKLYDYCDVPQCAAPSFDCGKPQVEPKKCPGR
The test system of assay [8] is Kallikrein. Put plainly: Anti-kallikrein activity (hydrolysis of TAME). In kind it is biochemical. As to conditions: at 1×10^-5 M.

Here are results for eleven compounds from patent publication US4532255A, “Amidine compounds and anticomplement agent comprising same” (Torii & Co., Ltd., priority 1980, dated 1985).

pIC50: −log10 of the molar value.

For orientation: inhibition means the relative decrease from the control value, in per cent.

Take `Cc1ccc(C(=O)Oc2ccc3cc(C(=N)N)ccc3c2)cc1` [Compound 4]: the pIC50 in assay [1] was 5.10; in assay [2], 6.00; in assay [3], 7.15; in assay [4], 4.70; in assay [5], 6.40; in assay [7], 6.30. Moreover, the “Inhibition of complement mediated hemolysis (%)” value (shortened to “Inhibition … (%)”) in assay [6] (1 × 10^-5) came to 85%; in assay [6] (1 × 10^-6) it was 37%; in assay [6] (1 × 10^-7), 21%.

Take `N=C(N)c1ccc2cc(OC(=O)c3ccc(OCc4ccccc4)cc3)ccc2c1` [Compound 9]: in assay [8], the Kallikrein percentage inhibition is on record as 19%. For the same compound, in assay [2], the pIC50 was 7.40. The inhibition at 10 µM in assay [4] is 20%; in assay [7], 48%.

On to `CC(=O)Oc1ccccc1C(=O)Oc1ccc2cc(C(=N)N)ccc2c1` [Compound 12], for which the pIC50 in assay [1] was below 5.00; in assay [3] it was 5.52; in assay [4] it was below 5.00; in assay [5], 5.52. Further, the inhibition at 10 µM in assay [2] amounted to 24%; in assay [7] it was 40%. Besides, the “Inhibition … (%)” value is listed as 87% in assay [6] (1 × 10^-4), 55% in assay [6] (1 × 10^-5), 27% in assay [6] (1 × 10^-6) and 3% in assay [6] (1 × 10^-7).

With `N=C(N)c1ccc2cc(OC(=O)c3ccc([N+](=O)[O-])cc3)ccc2c1` [Compound 18, 6-amidino-2-naphthyl 4-nitrobenzoate], the pIC50 in assay [1] was below 5.00; in assay [2], 5.00; in assay [3] it was 5.40; in assay [4] it was 5.70; in assay [5], 5.40; in assay [7], 5.52. For the same compound, the “Inhibition … (%)” value is listed as 92% in assay [6] (1 × 10^-4), 97% in assay [6] (1 × 10^-5), 56% in assay [6] (1 × 10^-6) and 20% in assay [6] (1 × 10^-7).

On to `N=C(N)c1ccc2cc(OC(=O)c3ccc(C=O)cc3)ccc2c1` [Compound 31], for which the pIC50 is below 5.00 in assay [1]; 5.40 in assay [2]; 5.52 in assay [3]; 6.52 in assay [4]; 5.70 in assay [5]; 6.40 in assay [7]. Besides, the “Inhibition … (%)” value in assay [6] (1 × 10^-4) came out at 98%; in assay [6] (1 × 10^-5), 99%; in assay [6] (1 × 10^-6), 92%; in assay [6] (1 × 10^-7), 76%.

On to `N=C(N)Nc1ccc(CCC(=O)Oc2ccc3cc(C(=N)N)ccc3c2)cc1` [Compound 52], for which the pIC50 in assay [1], in assay [3], in assay [4], in assay [5] and in assay [7] was below 5.00 each time. In addition, the inhibition at 10 µM in assay [2] worked out at 33%. The “Inhibition … (%)” value in assay [6] (1 × 10^-4) amounted to 48%; in assay [6] (1 × 10^-5), 15%; in assay [6] (1 × 10^-6), 6%; in assay [6] (1 × 10^-7), 14%.

Turning to `N=C(N)c1ccc2cc(OC(=O)C=Cc3ccccc3)ccc2c1` [Compound 57, 6-amidino-2-naphthyl cinnamate], the pIC50 is 4.30 in assay [1]; 5.30 in assay [2]; 5.52 in assay [3]; 5.00 in assay [4]; 4.52 in assay [5]; 5.52 in assay [7]. The “Inhibition … (%)” value in assay [6] (1 × 10^-5) is recorded as 80%; in assay [6] (1 × 10^-6) it was 24%; in assay [6] (1 × 10^-7), 23%.

`N=C(N)c1ccc2cc(OC(=O)C=Cc3ccc(N)cc3)ccc2c1` [Compound 63, 6-amidino-2-naphthyl 4-aminocinnamate]: the pIC50 in assay [1] is 5.40; in assay [2], 5.70; in assay [3], 6.40; in assay [4] it was below 5.00; in assay [7] it was 5.10. Moreover, the inhibition at 10 µM in assay [5] came out at 15%. Besides, the “Inhibition … (%)” value in assay [6] (1 × 10^-4) is 73%; in assay [6] (1 × 10^-5) it was 37%; in assay [6] (1 × 10^-6), 26%; in assay [6] (1 × 10^-7) it was 42%.

Turning to `N=C(N)Nc1ccc(C=CC(=O)Oc2ccc3cc(C(=N)N)ccc3c2)cc1` [Compound 64, 6-amidino-2-naphthyl 4-guanidinocinnamate], the pIC50 in assay [1] was 5.40; in assay [2], 5.70; in assay [3], 5.52; in assay [4], below 5.00; in assay [7], 5.00. Moreover, in assay [5], the inhibition at 10 µM is 14%. The “Inhibition … (%)” value in assay [6] (1 × 10^-5) was found to be 39%; in assay [6] (1 × 10^-6), 17%; in assay [6] (1 × 10^-7), 19%.

`N=C(N)c1ccc2cc(OC(=O)C=Cc3cccc(C(F)(F)F)c3)ccc2c1` [Compound 66]: the pIC50 was below 5.00 in assay [1]; 5.22 in assay [2]; 5.40 in assay [3]; 5.22 in assay [5]; 6.30 in assay [7]. The inhibition at 10 µM in assay [4] came out at 21%. The “Inhibition … (%)” value in assay [6] (1 × 10^-4) turned out to be 60%; in assay [6] (1 × 10^-5), 6%; in assay [6] (1 × 10^-6), 1%; in assay [6] (1 × 10^-7) it was 1%.

In the case of `COc1ccccc1OCC(=O)Oc1ccc2cc(C(=N)N)ccc2c1` [Compound 68], the pIC50 is below 5.00 in assay [1]; below 5.00 in assay [2]; below 5.00 in assay [3]; 5.00 in assay [4]; below 5.00 in assay [5]; below 5.00 in assay [7]. Moreover, the “Inhibition … (%)” value worked out at 91% in assay [6] (1 × 10^-4), 4% in assay [6] (1 × 10^-5), 0% in assay [6] (1 × 10^-6) and 0% in assay [6] (1 × 10^-7).
